# Columns and labels:
# [1] = test system: human liver cancer cell line Sk-Hep-1; experiment: effect on the cell cycle of Sk-Hep-1; format: cell-based
# Protocol: (§1) Please refer to FIG. 4A and FIG. 4B. […] Please further refer to the following Table 1 and Table 2.
# As shown in FIG. 4A and Table 1, in the cell cycle of Sk-Hep-1, the percentage of G1, S, and G2 phases are about 43.04%, 30.9%, and 23.75% respectively. When treat the Sk-Hep-1 cells with 10 μM of 5-FU alone, the percentage of G1, S, and G2 phases are about 51.51%, 31.19%, and 17.3% respectively. From the comparison with the control, 5-FU can increase the percentage of G1 phase and reduce the percentage of G2 phase. […] From the results, 5-FU combined with EGCG can effectively interrupt the cell cycle of Sk-Hep-1 cells at G1 phase, and prevent the cell cycle from entering S phase.
# [2] = test system: human liver cancer cell line Hep-G2; experiment: effect on the cell cycle of Hep-G2; format: cell-based
# Protocol: as §1
# Furthermore, as shown in FIG. 4B and Table 2, in the cell cycle of Hep-G2, the percentage of G1, S, and G2 phases are about 52.7%, 26.54%, and 20.76% respectively. When treat the Hep-G2 cells with 10 μM of 5-FU alone, the percentage of G1, S, and G2 phases are about 47.04%, 42.68%, and 10.29% respectively. From the comparison with the control, 5-FU can increase the percentage of S phase and reduce the percentage of G1 phase and G2 phase. […] From the results, 5-FU combined with EGCG can effectively interrupt the cell cycle of Hep-G2 cells at G1 phase, and prevent the cell cycle from entering S phase and G2 phase.
# P53 protein [3] = experiment: P53 protein expression of Sk-Hep-1; format: cell-based, human; conditions: Sk-Hep-1 cells, compared with control; concentrations not given
# Text: (§2) Referring to FIG. 5A and FIG. 5B.
# P53 protein [4] = experiment: P53 protein expression of Hep-G2; format: cell-based, human; conditions: Hep-G2 cells, compared with control; concentrations not given
# Text: as §2
# However, treat Hep-G2 with EGCG can reduce the expression of P53 protein to 0.74-fold.
# [5] = test system: human leukemia cell line Jurkat T; experiment: viability of human leukemia cell line Jurkat T; format: cell-based; conditions: 5-FU alone
# Text: (§3) Please refer to FIG. 6A and FIG. 6B.
# [6] = test system: human leukemia cell line K562; experiment: viability of human leukemia cell line K562; format: cell-based; conditions: 5-FU alone
# Text: as §3
# [7] = test system: human liver cancer cell line Sk-Hep-1; experiment: viability of human liver cancer cell line Sk-Hep-1 after treatment; conditions: for viability of Sk-Hep-1: after 48 hours
compound,measurement,setting,value
"O=c1[nH]cc(F)c(=O)[nH]1 [5-FU, 5-Fluorouracil]",Cell cycle phase G2 (%),"[1]; 5-FU, 10 μM",17.30 ± 0.3%
same,Cell cycle phase S (%),"[1]; 5-FU, 10 μM",31.19 ± 1.4%
same,Cell cycle phase G2 (%),"[2]; 5-FU, 10 μM",10.29 ± 2.5%
same,Cell cycle phase S (%),"[2]; 5-FU, 10 μM",42.68 ± 2.4%
same,expression of P53 protein,P53 protein [3],1.64 fold
same,expression of P53 protein,P53 protein [4],1.64 fold
same,viability of Jurkat T,[5],about 80%
same,effect on the viability of K562,[6],almost no effect
same,viability at 10 µM,"[7]; Homo sapiens, SK-HEP1, 48 h, read-out: viability of Sk-Hep-1",~75%
"O=C(O[C@@H]1Cc2c(O)cc(O)cc2O[C@@H]1c1cc(O)c(O)c(O)c1)c1cc(O)c(O)c(O)c1 [EGCG, Epigallocatechin gallate]",Cell cycle phase G1 (%),"[1]; EGCG, 50 μM",54.41 ± 5.4%
same,Cell cycle phase G2 (%),"[1]; EGCG, 50 μM",22.09 ± 2.2%
same,Cell cycle phase S (%),"[1]; EGCG, 50 μM",23.51 ± 3.2%
same,Cell cycle phase G1 (%),"[1]; EGCG, 100 μM",56.60 ± 3.8%
same,Cell cycle phase G2 (%),"[1]; EGCG, 100 μM",19.5 ± 0.7%
same,Cell cycle phase S (%),"[1]; EGCG, 100 μM",23.90 ± 3.1%
same,Cell cycle phase G1 (%),"[1]; EGCG, 250 μM",53.92 ± 1.9%
same,Cell cycle phase G2 (%),"[1]; EGCG, 250 μM",17.55 ± 1.7%
same,Cell cycle phase S (%),"[1]; EGCG, 250 μM",28.53 ± 2.3%
same,Cell cycle phase G1 (%),"[2]; EGCG, 50 μM",62.15 ± 2.4%
same,Cell cycle phase G2 (%),"[2]; EGCG, 50 μM",9.33 ± 4.7%
same,Cell cycle phase S (%),"[2]; EGCG, 50 μM",28.52 ± 4.3%
same,Cell cycle phase G1 (%),"[2]; EGCG, 100 μM",62.23 ± 5.7%
same,Cell cycle phase G2 (%),"[2]; EGCG, 100 μM",11.51 ± 4.1%
same,Cell cycle phase S (%),"[2]; EGCG, 100 μM",26.26 ± 3.5%
same,Cell cycle phase G1 (%),"[2]; EGCG, 250 μM",61.83 ± 1.6%
same,Cell cycle phase G2 (%),"[2]; EGCG, 250 μM",9.63 ± 1.7%
same,Cell cycle phase S (%),"[2]; EGCG, 250 μM",28.53 ± 1.3%
same,expression of P53 protein,P53 protein [3],1.8 fold
same,expression of P53 protein,P53 protein [4],0.74 fold
same,viability of Sk-Hep-1,[7]; 50 μM of EGCG,about 90%
same,viability of Sk-Hep-1,[7]; 100 μM of EGCG,~80%
same,viability of Sk-Hep-1,[7]; 250 μM of EGCG,~60%
same,viability of Sk-Hep-1,[7]; 500 μM of EGCG,~50%

# — US20090068295A1, “Composition for treating cancer and method of using the same” (Chang Gung University, priority 2007, published 2009)
